Assay results taken from US9657081B2, “Inhibiting peptides derived from triggering receptor expressed on myeloid cells-1 (TREM-1) TREM-like transcript 1 (TLT-1) for treatment of cardiovascular diseases” (INSERM (Institut National de la Sante et de la Recherche …, priority 2013, dated 2017).

Test system: TREM-1
Test: Rat model of myocardial ischemia-reperfusion, physiologic parameters and micro-TEP imaging
Type: in vivo
Protocol: Adult male Wistar rats (360-380 g) were used. All rats were anaesthetized with ketamine (100 mg/kg, intramuscularly) and mechanically ventilated. After a left thoracotomy, the left coronary artery was identified and ligated with a 6-0 prolene surgical suture. LAD occlusion was confirmed by a change in myocardial color from red to white in the ischemia area (Left ventricle). The chest was closed and the skin was sutured with 6-0 silk. The animals returned to their cage where they were supervised until their complete recovery. The postoperative mortality rate of all rats was 20%.
After surgical LAD occlusion, importance of ischemic area was evaluated by micro-TEP imaging. Animals were then randomized to receive peptide (5 mg/kg) every 24 h for 5 days or placebo (vehicle).
A further evaluation was performed at 6 weeks by micro-TEP imaging and conductance catheter (Millar) in order to study the treatment effect on myocardial remodeling and myocardial function.
Animals received same surgery than in permanent ischemia, but with reperfusion of ischemic area by release of the LAD ligation after 60 minutes of ischemia. The same protocol as described above was then applied.
In all animals, approximately 70 MBq of ^18F-FDG (in a 0.3-0.5 ml volume) was injected intravenously and under a short anaesthesia (1.5-2.5% of isoflurane inhalation) 60 min prior to initiating PET recording. Recording was acquired in list mode under continuous anaesthesia by isoflurane, using a dedicated small animal PET system (Inveon, Siemens, Knoxville, Tenn., USA). The animals were positioned in the prone position and placed on a heating pad to maintain a body temperature within the normal range. The animals were connected to a standard ECG monitor by three electrodes placed on the inner surfaces of limb extremities. Recording times were 20 min for 18F emission and 6 min for 57Co transmission. The coincidence timing window was set to 3.4 ns and the energy window between 350 and 650 keV. Images were reconstructed in 16 cardiac intervals, providing a temporal resolution of 11-15 ms for common heart rate values. Under these conditions, the axial spatial resolution was less than 1.5 mm. In addition, on LV rat phantoms obtained by a stereolithography process, a precise determination of the actual cavity volumes was provided by FDG PET images above the level of 100 μl corresponding to the lower limit for the LV endsystolic volume in adult.
To investigate the role of TREM-1- and TLT-1-derived peptides in a more relevant model of MI, we performed a transient coronary artery ligation (ischemia-reperfusion model: IR) in rats. After randomisation, animals were then imaged under anaesthesia (micro-TEP) and administered with TREM-1- and TLT-1-derived peptides (3 mg/kg daily for 5 days i.p.) or LR12-scrambled peptide. Imaging was then repeated at 6 weeks before we studied cardiac function by using a conductance catheter (Millar).

## LQEEDAGEYGCM (listed as Homo sapiens) [TLT1-LR12]
Baseline
  Body weight: 391 ± 9 g
  EDV: 511 ± 55 µL
  EF: 47 ± 6%
  ESV: 251 ± 75 µL
  Heart rate: 343 ± 43 bpm
  MI Areas: 41 ± 20 % of LV
  Systolic blood pressure: 134 ± 2 mmHg
Six weeks
  Body weight: 439 ± 12 g
  Body weight, difference with baseline: 48 ± 10 g
  EDV: 620 ± 34 µL
  EDV, difference with baseline: 109 ± 55 µL
  EF: 56 ± 5%
  EF, difference with baseline: 9 ± 7%
  ESV: 273 ± 47 µL
  ESV, difference with baseline: 22 ± 18 µL
  Heart rate: 370 ± 25 bpm
  Heart rate, difference with baseline: 27 ± 22 bpm
  MI Areas: 3 ± 9 % of LV
  MI Areas, difference with baseline: −38 ± 8 % of LV
  Systolic blood pressure: 167 ± 6 mmHg
  Systolic blood pressure, difference with baseline: 33 ± 6 mmHg
